Active and inactive are the calls of the source. No cut-off for these calls is given here.
Legend:
[1] = target: Delta-type opioid receptor (Homo sapiens, UniProt P41143); assay: GPCRScan assay: inhibition of DOR; parameters: radioligand conc. used [nm] 1.0 – 2.0, parental cells stable HEK
[2] = target: Sodium-dependent dopamine transporter (Homo sapiens, UniProt Q01959); assay: GPCRScan assay: inhibition of DAT; parameters: radioligand conc. used [nm] 3.6 – 16.0, parental cells stable HEK
[3] = target: Non-receptor tyrosine-protein kinase TNK1 (Homo sapiens) (UniProt Q13470); details: Compound concentration 1000.0 nM
Sequence of Non-receptor tyrosine-protein kinase TNK1 (Homo sapiens) (Q13470 whole entry): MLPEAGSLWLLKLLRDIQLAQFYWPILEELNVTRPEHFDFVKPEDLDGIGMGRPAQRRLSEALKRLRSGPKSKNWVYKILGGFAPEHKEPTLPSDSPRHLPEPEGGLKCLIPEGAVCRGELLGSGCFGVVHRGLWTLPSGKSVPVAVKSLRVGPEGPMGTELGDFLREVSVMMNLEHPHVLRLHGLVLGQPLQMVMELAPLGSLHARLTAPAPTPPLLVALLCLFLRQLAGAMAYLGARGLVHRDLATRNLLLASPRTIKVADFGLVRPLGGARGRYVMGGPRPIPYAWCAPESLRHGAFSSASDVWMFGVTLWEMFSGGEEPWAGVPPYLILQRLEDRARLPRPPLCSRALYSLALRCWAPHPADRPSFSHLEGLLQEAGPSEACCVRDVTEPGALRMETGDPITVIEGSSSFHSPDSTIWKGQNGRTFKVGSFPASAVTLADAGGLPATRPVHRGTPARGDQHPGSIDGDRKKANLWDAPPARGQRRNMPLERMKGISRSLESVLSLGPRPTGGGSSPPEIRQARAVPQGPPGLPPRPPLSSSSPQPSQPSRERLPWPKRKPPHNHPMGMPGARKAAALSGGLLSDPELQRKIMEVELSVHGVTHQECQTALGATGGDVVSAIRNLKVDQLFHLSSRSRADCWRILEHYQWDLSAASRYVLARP

[4] = target: Homeodomain-interacting protein kinase 4 (Homo sapiens) (UniProt Q8NE63); details: Compound concentration 1000.0 nM
[5] = target: Macrophage-stimulating protein receptor (Homo sapiens) (UniProt Q04912); details: Compound concentration 1000.0 nM
[6] = target: 5-hydroxytryptamine receptor 1A (Homo sapiens) (UniProt P08908); details: Compound concentration 10.0 uM
[7] = target: Phosphatidylinositol 4-phosphate 5-kinase type-1 gamma (Homo sapiens) (UniProt O60331); details: Compound concentration 1000.0 nM
Sequence of Phosphatidylinositol 4-phosphate 5-kinase type-1 gamma (Homo sapiens) (O60331 whole entry): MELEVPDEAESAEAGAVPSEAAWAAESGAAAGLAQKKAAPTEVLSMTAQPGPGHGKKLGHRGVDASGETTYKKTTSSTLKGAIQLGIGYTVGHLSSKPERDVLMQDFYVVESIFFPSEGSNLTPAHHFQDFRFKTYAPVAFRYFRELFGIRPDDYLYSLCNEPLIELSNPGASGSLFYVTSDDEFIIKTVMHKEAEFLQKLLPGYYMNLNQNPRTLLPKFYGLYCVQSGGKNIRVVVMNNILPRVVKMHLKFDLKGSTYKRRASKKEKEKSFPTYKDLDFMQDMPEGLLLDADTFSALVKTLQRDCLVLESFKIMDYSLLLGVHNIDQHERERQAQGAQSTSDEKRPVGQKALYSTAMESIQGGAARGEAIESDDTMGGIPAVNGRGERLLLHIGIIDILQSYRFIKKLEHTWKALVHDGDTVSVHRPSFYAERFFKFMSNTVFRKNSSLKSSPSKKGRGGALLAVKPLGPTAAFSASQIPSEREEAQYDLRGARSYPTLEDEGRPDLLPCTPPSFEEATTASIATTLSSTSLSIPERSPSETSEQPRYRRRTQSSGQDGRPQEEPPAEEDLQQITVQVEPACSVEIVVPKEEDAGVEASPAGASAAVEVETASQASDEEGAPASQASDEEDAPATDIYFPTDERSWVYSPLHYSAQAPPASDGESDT

[8] = target: Muscle, skeletal receptor tyrosine-protein kinase (Homo sapiens) (UniProt O15146); details: Compound concentration 1000.0 nM
[9] = target: Beta-3 adrenergic receptor (Homo sapiens, UniProt P13945); assay: GPCRScan assay: inhibition of Beta3; parameters: radioligand conc. used [nm] 0.2 – 0.5, parental cells HEK Flp-In
[10] = target: Phosphatidylinositol 4-phosphate 5-kinase type-1 alpha (Homo sapiens) (UniProt Q99755); details: Compound concentration 1000.0 nM
[11] = target: Mitogen-activated protein kinase kinase kinase kinase 5 (Homo sapiens) (UniProt Q9Y4K4); details: Compound concentration 1000.0 nM
Sequence of Mitogen-activated protein kinase kinase kinase kinase 5 (Homo sapiens) (Q9Y4K4 whole entry, looked up): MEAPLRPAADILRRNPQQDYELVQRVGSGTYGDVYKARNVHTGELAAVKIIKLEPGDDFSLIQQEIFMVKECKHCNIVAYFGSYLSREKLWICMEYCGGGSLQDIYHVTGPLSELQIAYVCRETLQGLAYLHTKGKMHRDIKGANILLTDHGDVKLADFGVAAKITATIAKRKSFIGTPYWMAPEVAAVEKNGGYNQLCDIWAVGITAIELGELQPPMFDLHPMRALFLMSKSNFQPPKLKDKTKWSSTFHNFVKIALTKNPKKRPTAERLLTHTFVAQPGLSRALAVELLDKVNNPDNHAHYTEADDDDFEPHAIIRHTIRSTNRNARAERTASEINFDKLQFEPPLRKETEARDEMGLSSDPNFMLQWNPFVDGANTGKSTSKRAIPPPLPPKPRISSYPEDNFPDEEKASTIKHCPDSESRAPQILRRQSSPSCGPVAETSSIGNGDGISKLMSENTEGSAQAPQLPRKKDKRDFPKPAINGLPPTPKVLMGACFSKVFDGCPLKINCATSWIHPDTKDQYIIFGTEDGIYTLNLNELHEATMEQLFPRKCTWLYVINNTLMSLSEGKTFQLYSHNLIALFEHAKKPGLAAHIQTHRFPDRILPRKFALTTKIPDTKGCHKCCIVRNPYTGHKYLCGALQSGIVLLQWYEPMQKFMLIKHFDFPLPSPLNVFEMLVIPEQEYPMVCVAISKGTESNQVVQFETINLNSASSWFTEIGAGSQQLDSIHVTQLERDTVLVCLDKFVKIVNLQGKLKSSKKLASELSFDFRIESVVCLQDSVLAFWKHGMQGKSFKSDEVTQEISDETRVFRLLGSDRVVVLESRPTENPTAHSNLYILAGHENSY

[12] = target: T1, Cannabinoid receptor 1 (Homo sapiens, UniProt P21554); assay: Radioligand Binding Assay (CNR1)
[13] = target: Membrane-associated tyrosine- and threonine-specific cdc2-inhibitory kinase (Homo sapiens) (UniProt Q99640); details: Compound concentration 1000.0 nM
[14] = target: 5-hydroxytryptamine receptor 2A (Homo sapiens, UniProt P28223); assay: GPCRScan assay: inhibition of 5-HT2A; parameters: radioligand conc. used [nm] 1.2 – 2.4, parental cells HEKT
[15] = target: Wee1-like protein kinase (Homo sapiens) (UniProt P30291); details: Compound concentration 1000.0 nM
Sequence of Wee1-like protein kinase (Homo sapiens) (P30291 whole entry, looked up): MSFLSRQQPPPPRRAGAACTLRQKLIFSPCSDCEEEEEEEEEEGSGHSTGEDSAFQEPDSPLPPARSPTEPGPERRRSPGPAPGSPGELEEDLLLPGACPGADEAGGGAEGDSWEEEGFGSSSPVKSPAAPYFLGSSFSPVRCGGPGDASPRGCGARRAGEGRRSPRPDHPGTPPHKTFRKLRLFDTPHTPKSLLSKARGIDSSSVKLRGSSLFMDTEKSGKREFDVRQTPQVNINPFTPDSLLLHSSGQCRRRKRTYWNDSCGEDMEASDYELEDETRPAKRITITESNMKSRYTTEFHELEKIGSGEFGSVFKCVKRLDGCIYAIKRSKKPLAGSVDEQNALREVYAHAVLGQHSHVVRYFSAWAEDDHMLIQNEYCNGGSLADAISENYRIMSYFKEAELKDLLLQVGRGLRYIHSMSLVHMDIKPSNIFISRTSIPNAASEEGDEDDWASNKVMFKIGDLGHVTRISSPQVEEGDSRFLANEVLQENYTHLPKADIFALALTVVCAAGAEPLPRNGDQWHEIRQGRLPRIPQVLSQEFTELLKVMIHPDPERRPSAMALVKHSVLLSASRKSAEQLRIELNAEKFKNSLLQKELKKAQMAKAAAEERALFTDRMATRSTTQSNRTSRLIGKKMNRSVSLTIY

[16] = target: Alpha-2C adrenergic receptor (Homo sapiens, UniProt P18825); assay: GPCRScan assay: inhibition of Alpha2C; parameters: radioligand conc. used [nm] 0.5 – 1.0, parental cells stable MDCK
[17] = target: 5-hydroxytryptamine receptor 1E (Homo sapiens) (UniProt P28566); details: Compound concentration 10.0 uM
[18] = target: cAMP-dependent protein kinase catalytic subunit PRKX (Homo sapiens) (UniProt P51817); details: Compound concentration 1000.0 nM
Sequence of cAMP-dependent protein kinase catalytic subunit PRKX (Homo sapiens) (P51817 whole entry): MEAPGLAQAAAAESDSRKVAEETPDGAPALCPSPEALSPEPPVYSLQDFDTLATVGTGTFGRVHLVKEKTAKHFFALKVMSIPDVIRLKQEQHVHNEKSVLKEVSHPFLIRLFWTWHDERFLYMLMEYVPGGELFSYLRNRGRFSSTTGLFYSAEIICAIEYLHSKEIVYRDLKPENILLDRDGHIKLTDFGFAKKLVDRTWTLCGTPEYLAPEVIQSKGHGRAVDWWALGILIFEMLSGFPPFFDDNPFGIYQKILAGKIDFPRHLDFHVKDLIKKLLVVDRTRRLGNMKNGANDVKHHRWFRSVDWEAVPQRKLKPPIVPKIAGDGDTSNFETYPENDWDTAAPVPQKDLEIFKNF

[19] = target: 5-hydroxytryptamine receptor 2C (Homo sapiens, UniProt P28335); assay: GPCRScan assay: inhibition of 5-HT2C; parameters: radioligand conc. used [nm] 1.0 – 2.5, parental cells HEK T
[20] = target: G protein-coupled receptor kinase 4 (Homo sapiens) (UniProt P32298); details: Compound concentration 1000.0 nM
Sequence of G protein-coupled receptor kinase 4 (Homo sapiens) (P32298 whole entry, looked up): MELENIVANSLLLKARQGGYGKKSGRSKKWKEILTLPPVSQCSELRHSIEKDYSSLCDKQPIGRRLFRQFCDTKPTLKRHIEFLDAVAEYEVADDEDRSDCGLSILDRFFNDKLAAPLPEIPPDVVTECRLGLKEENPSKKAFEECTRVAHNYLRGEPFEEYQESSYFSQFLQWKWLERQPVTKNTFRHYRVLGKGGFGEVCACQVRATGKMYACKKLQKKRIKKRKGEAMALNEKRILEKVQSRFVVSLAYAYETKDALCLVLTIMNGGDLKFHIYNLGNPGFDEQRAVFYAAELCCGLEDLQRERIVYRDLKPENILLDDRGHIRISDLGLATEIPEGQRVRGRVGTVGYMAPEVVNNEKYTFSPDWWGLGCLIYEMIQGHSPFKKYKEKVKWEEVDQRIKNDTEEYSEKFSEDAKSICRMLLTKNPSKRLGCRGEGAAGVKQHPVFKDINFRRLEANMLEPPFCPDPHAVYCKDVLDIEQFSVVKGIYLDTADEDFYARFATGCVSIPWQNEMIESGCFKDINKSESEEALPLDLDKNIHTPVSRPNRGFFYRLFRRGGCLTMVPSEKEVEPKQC

[21] = target: Alpha-2B adrenergic receptor (Homo sapiens, UniProt P18089); assay: GPCRScan assay: inhibition of Alpha2B; parameters: radioligand conc. used [nm] 1.5 – 2.0, parental cells HEKT
[22] = target: GABA-A receptor; anion channel (Rattus norvegicus) (UniProt O09028+P15431+P18506+P18508+P19969+P20236+P23574+P23576+P28471+P28473+P30191+P62813+P63079+P63138+Q91ZM7+Q9ES14); details: Compound concentration 10.0 uM
[23] = target: Beta-1 adrenergic receptor (Homo sapiens) (UniProt P08588); details: Compound concentration 10.0 uM
[24] = target: Mast/stem cell growth factor receptor Kit (Homo sapiens) (UniProt P10721); details: Compound concentration 1000.0 nM
Sequence of Mast/stem cell growth factor receptor Kit (Homo sapiens) (P10721 whole entry): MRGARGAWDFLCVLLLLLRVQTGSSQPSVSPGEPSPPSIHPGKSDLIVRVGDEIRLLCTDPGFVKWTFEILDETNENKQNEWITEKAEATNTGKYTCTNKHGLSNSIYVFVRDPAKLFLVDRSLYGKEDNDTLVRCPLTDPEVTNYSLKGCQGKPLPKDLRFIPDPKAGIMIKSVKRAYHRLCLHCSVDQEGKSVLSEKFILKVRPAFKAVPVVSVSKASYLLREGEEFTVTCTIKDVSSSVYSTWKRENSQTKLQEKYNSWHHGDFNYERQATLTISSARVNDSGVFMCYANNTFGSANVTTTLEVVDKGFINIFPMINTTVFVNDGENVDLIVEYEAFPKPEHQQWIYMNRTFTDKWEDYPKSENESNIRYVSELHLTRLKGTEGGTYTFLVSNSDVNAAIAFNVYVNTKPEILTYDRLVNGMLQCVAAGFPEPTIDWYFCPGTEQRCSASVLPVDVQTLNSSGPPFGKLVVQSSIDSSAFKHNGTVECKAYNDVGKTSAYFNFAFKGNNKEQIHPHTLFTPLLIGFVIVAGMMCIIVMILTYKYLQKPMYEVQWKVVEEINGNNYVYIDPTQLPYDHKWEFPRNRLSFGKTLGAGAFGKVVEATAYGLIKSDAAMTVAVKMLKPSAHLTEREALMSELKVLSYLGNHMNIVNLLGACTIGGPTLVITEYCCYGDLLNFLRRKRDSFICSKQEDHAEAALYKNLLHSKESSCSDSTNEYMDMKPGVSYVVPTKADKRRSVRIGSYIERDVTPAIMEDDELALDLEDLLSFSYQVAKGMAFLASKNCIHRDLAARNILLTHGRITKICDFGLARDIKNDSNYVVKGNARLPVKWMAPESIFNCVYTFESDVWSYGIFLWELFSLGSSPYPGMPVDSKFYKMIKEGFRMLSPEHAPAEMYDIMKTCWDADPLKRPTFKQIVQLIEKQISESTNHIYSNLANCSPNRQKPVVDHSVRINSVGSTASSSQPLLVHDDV

[25] = target: 5-hydroxytryptamine receptor 2B (Homo sapiens) (UniProt P41595); details: Compound concentration 10.0 uM
[26] = target: Mitogen-activated protein kinase kinase kinase 7 (Homo sapiens) (UniProt O43318); details: Compound concentration 1000.0 nM
[27] = target: GABA-A receptor; anion channel; assay: GPCRScan assay: inhibition of GABAA/BZP; assay type: protein-complex assay, Rattus norvegicus; parameters: radioligand conc. used [nm] 0.6 – 4.0, parental cells brain tissue
[28] = target: Sodium-dependent serotonin transporter (Homo sapiens) (UniProt P31645); details: Compound concentration 10.0 uM
[29] = target: Histamine H4 receptor (Homo sapiens) (UniProt Q9H3N8); details: Compound concentration 10.0 uM
[30] = target: 5-hydroxytryptamine receptor 7 (Homo sapiens) (UniProt P34969); details: Compound concentration 10.0 uM
[31] = target: T1, Cannabinoid receptor 1; assay: Functional activation assay
[32] = target: Sigma non-opioid intracellular receptor 1 (Homo sapiens, UniProt Q99720); assay: GPCRScan assay: inhibition of Sigma 1; parameters: radioligand conc. used [nm] 4.0 – 5.0, parental cells HEKT
[33] = target: Sigma intracellular receptor 2 (Homo sapiens, UniProt Q5BJF2); assay: GPCRScan assay: inhibition of Sigma 2; parameters: radioligand conc. used [nm] 5.0, parental cells HEKT
Sequence of Sigma intracellular receptor 2 (Q5BJF2 whole entry): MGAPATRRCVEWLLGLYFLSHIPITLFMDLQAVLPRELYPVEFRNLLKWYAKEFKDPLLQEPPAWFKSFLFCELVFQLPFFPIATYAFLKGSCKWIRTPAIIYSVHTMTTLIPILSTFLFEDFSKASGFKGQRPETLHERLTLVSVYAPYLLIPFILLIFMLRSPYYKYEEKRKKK

[34] = GPCRScan assay: inhibition of GABA/PBR; parameters: species or system Rattus norvegicus; radioligand conc. used [nm] 0.3 – 2.0, parental cells brain tissue
[35] = target: 5-hydroxytryptamine receptor 6 (Homo sapiens) (UniProt P50406); details: Compound concentration 10.0 uM

Q: Which results are given for `CC(=O)c1c(NS(C)(=O)=O)c2cc(-c3ccc(Cl)cc3)c(-c3ccc(Cl)cc3Cl)nc2n(C)c1=O` [MRL-CB1-NC]?
A: Ki [1]: 1410 nM; Ki ([2]; read-out: Ki): 766 nM; Ki ([2]; read-out: pKi (converted)): 794 nM; residual activity [3]: 100%; residual activity [4]: 93%; residual activity [5]: 88%; inhibition [6]: 28.7%; residual activity [7]: 100%; residual activity [8]: 99%; Ki [9]: 1130 nM; residual activity [10]: 97%; residual activity [11]: 100%; Inverse agonism [12]: 32.5%; residual activity [13]: 99%; Ki [14]: 1810 nM; residual activity [15]: 95%; Ki [16]: 10000 nM; inhibition [17]: 29.2%; residual activity [18]: 97%; Ki [19]: 22 nM; residual activity [20]: 94%; Ki [21]: 1690 nM; inhibition [22]: 0.954%; inhibition [23]: 25.6%; residual activity [24]: 100%; inhibition [25]: -0.601%; residual activity [26]: 83%; Ki [27]: 1660 nM

Q: With `CC(=O)Nc1c(C(C)=O)c(=O)n(C)c2nc(-c3ccc(Cl)cc3Cl)c(-c3ccc(Cl)cc3)cc12` [NAPHTHYRIDINONE] as the compound, how does the residual activity [3] read?
A: 100%

Q: What about the residual activity [4] of the same compound?
A: 89%

Q: And the inhibition [28]?
A: -9.53%

Q: What about the inhibition [29] of the same compound?
A: 13.9%

Q: What about the residual activity [5] of the same compound?
A: 100%

Q: What about the inhibition [30] of the same compound?
A: 0.657%

Q: What about the EC50 [31] of the same compound?
A: 4.9 nM (active)

Q: And the Ki [32]?
A: 1160 nM

Q: What about the residual activity [7] of the same compound?
A: 100%

Q: What about the residual activity [8] of the same compound?
A: 100%

Q: What about the Ki [33] of the same compound?
A: 605 nM

Q: And the residual activity [10]?
A: 100%

Q: What about the residual activity [11] of the same compound?
A: 100%

Q: What about the residual activity [13] of the same compound?
A: 100%

Q: What about the residual activity [15] of the same compound?
A: 100%

Q: What about the residual activity [18] of the same compound?
A: 100%

Q: What about the residual activity [20] of the same compound?
A: 100%

Q: And the residual activity [24]?
A: 100%

Q: What about the Ki [34] of the same compound?
A: 82 nM

Q: And the pKi [34]?
A: 7.09

Q: And the inhibition [35]?
A: -3.97%

Q: What about the inhibition [25] of the same compound?
A: 1.6%

Q: What about the residual activity [26] of the same compound?
A: 100%

— ChEMBL document CHEMBL4507287, “Data for DCP probe MRL-650” (2021)
